Assay results published in US20100222437A1, “C[…]-PSYCHOTROPIC CANNABINOIDS FOR THE TREATMENT OF INFLAMMATORY DISEASES” (priority 2007, published 2010).
Where two headings read alike, the source gives them in different places.

Columns and labels:
[1] = system: HCT-116 (Colon cancer) cells; assay: Calcein-AM cytotoxicity assay, HCT-116; conditions: HCT-116, 24 h, compound alone
Experimental: (§1) The cytotoxic effect of the Cannabigerol (CBG) and Cannabidiol (CBD) alone or in combination was investigated by the Calcein-AM assay. Briefly, AGS, SW480 and HTC116 cells were cultivated at a density of 1.0×10^4 cells/ml in 96-well plates, 200 μl cell suspension per well and cultured in DMEM containing 10% fetal calf serum. Cells were treated with or without CBD, CBG or a combination of both compounds for 24 h, after which the wells were washed and the cells incubated with Calcein-AM (1 μM) (Molecular Probes) for 30 min. Then the fluorescence of viable cells was detected in a microtitre plate reader (TECAN Genius Pro). The intensity of fluorescence was inversely proportional to cell death induced by the compounds.

[2] = system: SW480 (Colon cancer) cells; assay: Calcein-AM cytotoxicity assay, SW480; conditions: SW480, 24 h, compound alone
Experimental: as §1

IL-1β = IL-1β release by LPS-stimulated human monocytes (ELISA); type: cell-based; conditions: for release of IL-1β (IL-1) in LPS-stimulated monocytes: LPS 10 ng/ml, 24 h, rank order Denbinobin, CBD, CBG
Experimental: The inhibitory effect of CARMA-CBG extract on IL-1β release was studied in human peripheral mononuclear phagocytic cells. Monocytes from healthy human donors were prepared following a standardised protocol (Ficoll gradient preparation) using a completely endotoxin-free cultivation. Using 50 ml tubes, 25 ml Ficoll were loaded with 25 ml blood of buffy coats from healthy blood donors. The gradient was established by centrifugation at 1,800 r.p.m., 20° C. for 40 min by using slow acceleration and brakes. Peripheral blood mononuclear cells in the interphase were carefully removed and re-suspended in 50 ml pre-warmed phosphate buffered saline followed by centrifugation for 10 min at 1,600 r.p.m. and 20° C. The supernatant was discarded and the pellet washed in 50 ml PBS and centrifuged as described above. The pellet was then re-suspended in 50 ml RPMI-1640 low endotoxin-medium supplemented with 10% human serum (PAA). After counting the amount of cells in a particle counter, cells were seeded in 24-well plates for ELISA and incubated at 37° C./5% CO2. The medium and the non-adherent cells (lymphocytes) were removed and fresh RPMI-1640 medium containing 1% human serum was added. The monocytes were treated with LPS (10 ng/ml), in the absence or presence of increasing concentrations of CARMA-CBG extract dissolved in DMSO for 24 h. The production of the IL-1β was determined by ELISA. […] LPS-mediated activation in the absence of CARMA-CBG was arbitrarily set as 100% of IL-1β release (FIG. 5).
Monocytes were isolated from healthy human donors as indicated above, and then treated with LPS (10 ng/ml), in the absence or presence of either CBG, or CBD or Denbinobin, as indicated, dissolved in DMSO. The production of IL-1 was determined by ELISA, and mean values from two independent experiments are shown. Full LPS-mediated activation was arbitrarily set as 100%.
Monocytes from healthy human donors, were treated with LPS (10 ng/ml), in the absence or presence of either CBG, or CBD or Canflavin A or Denbinobin, combined as indicated. The production of IL-1 was determined by ELISA, and mean values from two independent experiments are shown.

[3] = system: AGS (gastric cancer) cells; assay: Calcein-AM cytotoxicity assay, AGS; conditions: 24 h, compound alone
Experimental: as §1

TNF-α = TNF-α release by LPS-stimulated human monocytes (ELISA); type: cell-based; conditions: for release of TNF-α in LPS-stimulated monocytes: LPS 10 ng/ml, 24 h, rank order Denbinobin, CBD, CBG
Experimental: The inhibitory effect of CARMA-CBG extract on TNF-α release was studied in human peripheral mononuclear phagocytic cells. Monocytes were isolated as in Example 6 and were treated with LPS (10 ng/ml), in the absence or presence of increasing concentrations of CARMA-CBG extract dissolved in DMSO for 24 h. The production of the TNFα was determined by ELISA. […] LPS-mediated activation in the absence of CARMA-CBG was arbitrarily set as 100% of TNF-α release (FIG. 6).
The production of TNF-α was determined by ELISA, on the supernatant of LPS-treated monocytes, as indicated above, in the absence or presence of either CBG, or CBD or Denbinobin, as indicated.
Monocytes from healthy human donors, were treated with LPS (10 ng/ml), in the absence or presence of either CBG, or CBD or Canflavin A or Denbinobin, combined as indicated. The production of TNF-α was determined by ELISA as indicated above.

NF-kB = assay: cells; type: cell-based; conditions: for % INHIBITON OF TNF-α-INDUCED NF-κB ACTIVATION: compound alone
[4] = target: T1, CB1 receptors in intestine submucose neurons (Rattus norvegicus, UniProt P20272); conditions: by activating CB1 receptors; cited from earlier work
T1 construct: host or cells: intestine submucose neurons (in vivo)

intestinal inflammation = conditions: mice with induced IBD; cited from earlier work
colon cancer cell lines = conditions: cited from earlier work
HIV-1 = conditions: cited from earlier work
leukaemia cell lines = conditions: cited from earlier work
prostaglandin E2 = conditions: cited from earlier work
[5] = Homo sapiens, Monocyte, compound alone, 20 μM, read-out: % INHIBITION OF LPS-INDUCED IL-1 PRODUCTION
[6] = Homo sapiens, Monocyte, compound alone, 10 μM, read-out: % INHIBITION OF LPS-INDUCED TNF-α-PRODUCTION
[7] = Homo sapiens, Monocyte, compound alone, 20 μM, read-out: % INHIBITION OF LPS-INDUCED TNF-α-PRODUCTION
[8] = Homo sapiens, Jurkat, read-out: % INHIBITON OF TNF-α-INDUCED NF-κB ACTIVATION

T1 sequence (P20272 whole entry): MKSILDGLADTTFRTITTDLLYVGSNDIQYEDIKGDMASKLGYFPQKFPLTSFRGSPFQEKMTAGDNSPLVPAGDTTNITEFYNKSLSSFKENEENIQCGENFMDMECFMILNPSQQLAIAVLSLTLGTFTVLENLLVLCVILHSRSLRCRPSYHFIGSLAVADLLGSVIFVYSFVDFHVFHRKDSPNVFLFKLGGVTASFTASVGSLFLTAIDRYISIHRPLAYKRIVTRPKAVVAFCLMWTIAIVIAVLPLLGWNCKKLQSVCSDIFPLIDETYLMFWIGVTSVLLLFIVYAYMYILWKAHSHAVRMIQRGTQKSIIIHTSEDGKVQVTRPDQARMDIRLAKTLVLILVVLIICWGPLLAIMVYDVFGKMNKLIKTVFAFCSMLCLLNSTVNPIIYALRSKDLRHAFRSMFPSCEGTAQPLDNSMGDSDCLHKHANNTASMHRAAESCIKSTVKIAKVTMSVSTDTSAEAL

SMILES	cytotoxicity (cell survival, Calcein-AM) [1]	cytotoxicity (cell survival, Calcein-AM) [2]	inhibition at 20 µM (IL-1β; [5])	release of IL-1β (IL-1) in LPS-stimulated monocytes (IL-1β)	cytotoxicity (cell survival, Calcein-AM) [3]	inhibition at 10 µM (TNF-α; [6])	inhibition at 20 µM (TNF-α; [7])	release of TNF-α in LPS-stimulated monocytes (TNF-α)	inhibition at 10 µM (NF-kB; [8])	inhibition at 20 µM (NF-kB; [8])	further results
CCCCCc1cc(O)c(C/C=C(\C)CCC=C(C)C)c(O)c1 [CBG, Cannabigerol]	induced cytotoxicity	induced cytotoxicity	32.6%	significant concentration-dependent decrease	induced cytotoxicity	24.9%	59.8%	significant concentration-dependent decrease	0%	18.3%	inhibition at 10 µM (IL-1β; Homo sapiens, Monocyte, read-out: % INHIBITION OF LPS-INDUCED IL-1 PRODUCTION): 9.4%
CCCCCc1cc(O)c2c(c1)OC(C)(C)[C@@H]1CCC(C)=C[C@@H]21 [THC, Δ-9-Tetrahydrocannabinoid]	–	–	–	–	–	–	–	–	–	–	gastrointestinal motility [4]: inhibits; intestinal inflammation (intestinal inflammation): reduces
COC1=CC(=O)c2ccc3cc(OC)cc(O)c3c2C1=O [Denbinobin]	–	–	–	significant concentration-dependent decrease	–	–	–	significant concentration-dependent decrease	–	–	anti-tumoral activity (colon cancer cell lines): anti-tumoral activities; inhibition at 1 µM (IL-1β; Homo sapiens, Monocyte, compound alone, 1 μM, read-out: % INHIBITION OF LPS-INDUCED IL-1 PRODUCTION): 37%; % INHIBITION OF LPS-INDUCED IL-1 PRODUCTION (IL-1β; compound alone, 2 μM00): 70.00%; HIV-1 replication in T cells (HIV-1): can inhibit; anti-tumoral activity (leukaemia cell lines): anti-tumoral activities; inhibition at 1 µM (TNF-α; Homo sapiens, Monocyte, compound alone, 1 μM, read-out: % INHIBITION OF LPS-INDUCED TNF-α-PRODUCTION): 32%; inhibition at 2 µM (TNF-α; Homo sapiens, Monocyte, compound alone, 2 μM, read-out: % INHIBITION OF LPS-INDUCED TNF-α-PRODUCTION): 64%; inhibition at 1 µM (NF-kB; [8]): 44.9%; inhibition at 2 µM (NF-kB; [8]): 93.1%
COc1cc(-c2cc(=O)c3c(O)c(C/C=C(\C)CCC=C(C)C)c(O)cc3o2)ccc1O [Canflavin A]	–	–	0%	–	–	0%	0%	–	16.6%	38.8%	inhibition at 10 µM (IL-1β; Homo sapiens, Monocyte, compound alone, 10 μM, read-out: % INHIBITION OF LPS-INDUCED IL-1 PRODUCTION): 0%; release of prostaglandin E2 (prostaglandin E2): can inhibit
C=C(C)[C@@H]1CCC(C)=C[C@H]1c1c(O)cc(CCCCC)cc1O [CBD, Cannabidiol]	induced cytotoxicity	induced cytotoxicity	–	significant concentration-dependent decrease	induced cytotoxicity	–	–	significant concentration-dependent decrease	–	–	% INHIBITION OF LPS-INDUCED IL-1 PRODUCTION (IL-1β; compound alone, 10 μM): 70.10%; % INHIBITION OF LPS-INDUCED IL-1 PRODUCTION (IL-1β; compound alone, 20 μM): 84.00%; % INHIBITION OF LPS-INDUCED TNF-α-PRODUCTION (TNF-α; compound alone, 10 μM): 33.30%; % INHIBITION OF LPS-INDUCED TNF-α-PRODUCTION (TNF-α; compound alone, 20 μM): 83.60%; % INHIBITON OF TNF-α-INDUCED NF-κB ACTIVATION (NF-kB; 10 μM): 14.43%; % INHIBITON OF TNF-α-INDUCED NF-κB ACTIVATION (NF-kB; 20 μM): 59.67%
